Measured values taken from patent US20130045991A1, “NEUROPROTECTIVE MODULATION OF NMDA RECEPTOR SUBTYPE ACTIVITIES” (THE UNIVERSITY OF BRITISH COLUMBIA, priority 2005, published 2013).

Experiments:
Akt (phospho-Ser473) = assay: Western blotting of Akt phosphorylation after NMDA treatment; type: cell-based, rat; conditions: NMDA-treated neurons, western blot
Experimental: Twelve hours after treatments, proteins were extracted from neurons using a lysis buffer composed of 150 mM NaCl, 50 mM Tris (pH 7.4), 0.1% SDS, 1% NP-40, 0.5% sodium deoxycholate, 1 mM EDTA, 1 mM Na3VO4, 10 μg/ml each of leupeptin and aprotinin, and 1 mM phenylmethylsulfonyl fluoride. To determine the state of Akt phosphorylation, the samples were separated on 10% SDS-PAGE gels, transferred to PVDF membrane and immunoblotted with anti-phosphoSer473-Akt antibody (Cell Signaling). The same membrane was stripped and reprobed with anti-Akt antibody (Cell Signaling). To determine the activity of caspase-3, the samples were separated on 15% SDS-PAGE gels and transferred to PVDF membranes, which were then sequentially probed with antibodies against cleaved caspase-3 (Asp175, Cell Signaling) and β-tubulin (Sigma).

[1] = system: extrasynaptic NMDA receptors; assay: NMDA-induced currents mediated by extrasynaptic NMDA receptors; type: cell-based, rat; conditions: NMDA 200 μM; n=5
Experimental: (§1) In contrast to the predominant expression of NR2A-containing receptors at synapses, NR2B-containing receptors are thought to be the predominant NMDA receptor expressed at extrasynaptic sites in mature neurons (Massy et al., 2004; Tovar et al., 2002). […] The selective blockade of synaptic NMDA receptors was achieved by co-application of bicuculline (50 μM) and MK-801 (10 μM) for 10 min. Bicuculline enhances synaptic release of glutamate and thereby selectively activates synaptic NMDA receptors (Hardingham et al., 2002). MK-801, as an irreversible blocker of open NMDA receptor channels (Tovar et al., 2002; Huettner et al., 1988), can only block the bicuculline-activated synaptic NMDA receptors, and cannot block extrasynaptic channels that are not activated during bicuculline application. […] Little recovery was observed one hour following wash-out of the drugs. The currents gated through extrasynaptic NMDA receptors were then induced by application of NMDA (200 μM) via a fast perfusion system after washing out bicuculline and MK-801. […] On average, about 26.6±2.3% (n=5) of total currents gated by extrasynaptic NMDA receptors were mediated by NR2A-containing receptors (FIG. 4Ad).
(§2) Recording of NMDA-induced currents mediated by extrasynaptic NMDA Receptors: Extrasynaptic NMDA receptors were isolated by a specific blockade of synaptic NMDA receptors with NMDA receptor open channel blocker MK-801 as described above. The coverslip with the treated cortical neurons was transferred to a recording chamber for whole-cell patch-clamp recording. Extrasynaptic NMDA receptors in voltage-clamped cortical neurons were activated by NMDA (200 μM) in Mg2+-free ECS using a fast perfusion system (Warner Instruments).

[2] = target: T1, extrasynaptic NMDA receptors (Rattus norvegicus, UniProt Q00959); assay: as above; type: cell-based; conditions: in presence of Ro 25-6981; NVP-AAM077 0.4 μM
T1 construct: both NR2A- and NR2B-containing receptor subtypes are expressed in these neurons; endogenous in cells; host or cells: primary cortical neurons from E18 Sprague-Dawley rat embryos, 11-14 DIV
Experimental: as §1, §2

[3] = target: T2, extrasynaptic NMDA receptors (Rattus norvegicus, UniProt Q00960); assay: as above; type: cell-based; conditions: NMDA 200 μM after MK-801/bicuculline block of synaptic receptors; Ro 25-6981 0.5 μM
T2 construct: both NR2A- and NR2B-containing receptor subtypes are expressed in these neurons; endogenous in cells; host or cells: primary cortical neurons from E18 Sprague-Dawley rat embryos, 11-14 DIV
Experimental: as §1, §2

T1 sequence (Q00959 23-1464, other chains not shown): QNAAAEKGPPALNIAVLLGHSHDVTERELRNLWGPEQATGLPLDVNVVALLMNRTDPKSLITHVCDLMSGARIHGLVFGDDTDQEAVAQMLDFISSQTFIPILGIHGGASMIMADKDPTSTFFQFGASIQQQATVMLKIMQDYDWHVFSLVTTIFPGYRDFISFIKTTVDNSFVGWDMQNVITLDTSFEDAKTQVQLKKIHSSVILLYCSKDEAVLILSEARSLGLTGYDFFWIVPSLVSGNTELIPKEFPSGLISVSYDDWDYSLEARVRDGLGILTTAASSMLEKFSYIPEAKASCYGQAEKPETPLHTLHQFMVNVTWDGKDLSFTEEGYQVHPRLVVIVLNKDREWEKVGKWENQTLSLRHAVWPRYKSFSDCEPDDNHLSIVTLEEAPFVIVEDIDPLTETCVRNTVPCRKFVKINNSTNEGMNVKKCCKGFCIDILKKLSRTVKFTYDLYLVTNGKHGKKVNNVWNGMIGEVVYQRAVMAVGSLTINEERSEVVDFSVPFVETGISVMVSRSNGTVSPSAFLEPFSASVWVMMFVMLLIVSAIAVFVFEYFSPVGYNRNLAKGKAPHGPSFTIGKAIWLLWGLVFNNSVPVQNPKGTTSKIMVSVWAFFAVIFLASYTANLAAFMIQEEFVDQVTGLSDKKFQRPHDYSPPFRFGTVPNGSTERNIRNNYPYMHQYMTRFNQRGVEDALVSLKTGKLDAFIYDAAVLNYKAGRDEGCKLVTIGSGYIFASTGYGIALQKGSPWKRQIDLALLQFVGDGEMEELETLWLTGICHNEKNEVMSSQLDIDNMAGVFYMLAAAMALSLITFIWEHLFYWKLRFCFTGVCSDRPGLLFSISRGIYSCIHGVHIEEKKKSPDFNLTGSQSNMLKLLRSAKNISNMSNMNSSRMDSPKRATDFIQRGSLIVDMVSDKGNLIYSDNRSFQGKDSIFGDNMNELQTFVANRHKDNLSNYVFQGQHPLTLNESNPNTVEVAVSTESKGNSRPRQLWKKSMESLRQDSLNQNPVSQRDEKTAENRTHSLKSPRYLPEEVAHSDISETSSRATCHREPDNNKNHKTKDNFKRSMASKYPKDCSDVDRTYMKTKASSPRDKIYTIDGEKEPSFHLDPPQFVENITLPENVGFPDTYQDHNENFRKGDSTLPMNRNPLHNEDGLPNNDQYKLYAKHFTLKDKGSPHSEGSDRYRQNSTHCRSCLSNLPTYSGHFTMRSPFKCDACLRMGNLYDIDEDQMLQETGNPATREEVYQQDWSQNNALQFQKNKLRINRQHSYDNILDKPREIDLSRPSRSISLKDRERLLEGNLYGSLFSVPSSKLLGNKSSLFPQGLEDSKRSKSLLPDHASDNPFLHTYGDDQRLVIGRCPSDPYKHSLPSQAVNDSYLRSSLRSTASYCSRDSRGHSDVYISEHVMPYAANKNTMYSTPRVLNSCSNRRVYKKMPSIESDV
T2 sequence (Q00960 27-1482, other chains not shown): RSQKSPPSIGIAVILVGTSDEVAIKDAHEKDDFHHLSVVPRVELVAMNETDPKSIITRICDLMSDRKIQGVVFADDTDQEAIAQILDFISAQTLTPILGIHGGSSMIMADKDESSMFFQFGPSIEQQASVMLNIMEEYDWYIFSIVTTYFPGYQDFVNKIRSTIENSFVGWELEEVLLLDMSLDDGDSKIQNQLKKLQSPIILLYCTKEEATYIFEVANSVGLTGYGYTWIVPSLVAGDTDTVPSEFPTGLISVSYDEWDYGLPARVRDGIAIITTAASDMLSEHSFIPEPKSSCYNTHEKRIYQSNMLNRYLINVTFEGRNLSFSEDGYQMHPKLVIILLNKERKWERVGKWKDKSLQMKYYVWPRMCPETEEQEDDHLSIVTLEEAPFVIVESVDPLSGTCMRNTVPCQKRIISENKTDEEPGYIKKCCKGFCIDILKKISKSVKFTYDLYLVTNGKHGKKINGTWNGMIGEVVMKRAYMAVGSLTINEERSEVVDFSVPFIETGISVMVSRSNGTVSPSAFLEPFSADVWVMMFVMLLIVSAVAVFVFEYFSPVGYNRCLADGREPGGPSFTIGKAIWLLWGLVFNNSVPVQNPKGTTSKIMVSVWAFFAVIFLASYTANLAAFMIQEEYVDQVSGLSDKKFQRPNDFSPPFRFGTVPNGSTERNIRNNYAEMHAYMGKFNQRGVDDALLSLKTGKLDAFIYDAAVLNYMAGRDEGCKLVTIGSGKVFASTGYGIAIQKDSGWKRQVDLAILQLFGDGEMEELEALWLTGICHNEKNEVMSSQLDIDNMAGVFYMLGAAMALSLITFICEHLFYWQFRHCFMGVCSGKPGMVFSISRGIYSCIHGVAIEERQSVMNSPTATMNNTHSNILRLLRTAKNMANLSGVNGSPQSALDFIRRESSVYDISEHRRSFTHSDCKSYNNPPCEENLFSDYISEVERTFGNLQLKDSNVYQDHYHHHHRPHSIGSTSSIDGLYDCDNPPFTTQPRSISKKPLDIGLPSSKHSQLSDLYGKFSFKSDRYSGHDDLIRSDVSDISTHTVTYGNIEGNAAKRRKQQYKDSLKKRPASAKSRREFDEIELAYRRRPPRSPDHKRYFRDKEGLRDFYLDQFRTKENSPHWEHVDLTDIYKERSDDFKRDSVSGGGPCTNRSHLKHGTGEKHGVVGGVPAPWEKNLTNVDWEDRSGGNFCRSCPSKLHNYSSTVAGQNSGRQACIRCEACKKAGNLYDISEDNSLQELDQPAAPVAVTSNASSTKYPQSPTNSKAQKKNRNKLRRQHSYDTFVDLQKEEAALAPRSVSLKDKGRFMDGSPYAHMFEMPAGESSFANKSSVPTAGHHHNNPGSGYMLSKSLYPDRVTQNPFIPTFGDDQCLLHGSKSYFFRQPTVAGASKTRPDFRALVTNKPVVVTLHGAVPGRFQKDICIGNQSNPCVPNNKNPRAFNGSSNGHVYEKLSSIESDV

Row | Compound | effect on NMDA-induced reduction in Akt kinase activity (S473 dephosphorylation) (Akt (phospho-Ser473)) | share of total extrasynaptic NMDA receptor currents mediated by NR2A-containing receptors (Ro 25-6981-resistant, NVP-AAM077-blocked) [1] | effect on residual, NR2B antagonist-resistant extrasynaptic current [2] | effect on extrasynaptic NMDA receptor-mediated currents [3]
1 | C[C@H](NC(c1cccc2[nH]c(=O)c(=O)[nH]c12)P(=O)(O)O)c1ccc(Br)cc1 (stereo partly shown) [NVP-AAM077] | slightly increased the NMDA-induced reduction in Akt activity | about 26.6±2.3% | virtually completely blocked | 
2 | C[C@@H](CN1CCC(Cc2ccccc2)CC1)[C@@H](O)c1ccc(O)cc1 (relative stereo) [Ro 25-6981, [R-(R*,S*)]-α-(4-Hydroxyphenyl)-β-methyl-4-(phenylmethyl)-1-piperidinepropanol] |  |  |  | largely reduced
